Experimental data published in patent US8669289B2, “Methods and compositions relating to hematologic malignancies” (The Jackson Laboratory, priority 2009, dated 2014).
Entries after “also recorded” stand apart in the source; their conditions may differ.

How the values were obtained:
[1] = tested on: leukemia cells, LSCs, LT-LSC and ST-LSC+MPP; test: In vitro culture of bone marrow cells of CML mice with curcumin, live cell numbers by FACS; format: cell-based; conditions: 20 μM, 6 days, vs buffer control
Description: Bone marrow cells are isolated from 6- to 10-week-old C57BL/6 (B6) mice induced with BCR-ABL, for example using the retroviral vector MSCV-IRES-eGFP carrying the p210 BCR-ABL cDNA to produce CML mice. Total bone marrow cells were cultured in vitro in the presence of StemSpan serum-free medium (StemCell Technologies, Vancouver, BC) supplemented with 10 μg/mL heparin (Sigma, St Louis, Mo.), 10 ng/mL mouse SCF, 20 ng/mL mouse TPO, 20 ng/mL mouse IGF-2 (all from R&D Systems, Minneapolis, Minn.), and 10 ng/mL human FGF-1 (Invitrogen, Carlsbad, Calif.). Half of the medium was replaced after 3 days with fresh medium. (Peng et al Blood, 15 Jul. 2007, Vol. 110, No. 2, pp. 678-685; Zhang and Lodish Blood, 1 Jun. 2005, Vol. 105, No. 11, pp. 4314-4320; de Haan et al. Dev Cell 2003; 4:241-251). The cells were cultured for 6 days in the presence or absence of the Alox5 inhibitor, curcumin at (1,7-Bis(4-hydroxy-3-methoxyphenyl)-1,6-heptadiene-3,5-dione; Calbiochem cat. no. 239802) a concentration of 20 μM in vitro (5×10^6 cells/6 cm tissue culture plate) at 37° C. in a 5% CO2 tissue culture incubator. […] Total live cell numbers were measured for leukemia cells, leukemia stem cells, long-term LSC (LT-LSC) and short-term LSCs with multipotent progenitor cells (ST-LSC+MPP). […]

[2] = tested on: K562 myeloid leukemia cells; test: K562 cell proliferation, trypan blue live cell count; format: cell-based, human
Description: The cells are treated with curcumin at 5 different concentrations (20 μM; 40 μM; 60 μM; 80 μM; 100 μM) for 48, 72 and 96 hours. The cells are stained with trypan blue and counted. The total cell number of live cells is shown in the graph in FIG. 27. […] K562 is a human Bcr-Abl positive CML cell line, which was isolated from a CML patient in blast crisis (Koeffler, H. P., and Golde, D. W. 1980. Human myeloid leukemia cell lines: a review. […] This cell line is commonly used for screening compounds to detect anti-proliferative activities of leukemia cells and for the pharmacology and toxicology studies required for IND (Investigational New Drug) application. […] The cells are treated with zileuton at 7 different concentrations (10 μ[…]) for 48, and 72 hours. The cells are stained with trypan blue and counted. The total cell number of live cells following these treatments is shown in the graph in FIG. 28.

Alox5 gene = test: Gene expression in LSCs of CML mice with imatinib treatment (DNA microarray, RT-PCR); format: in vivo; conditions: imatinib 150 mg/kg every 4 hours, 5 doses from day 13 post BMT
Source text: (§1) Leukemic stem cells in CML (CML-SCs) are insensitive to BCR-ABL kinase inhibitors (Graham et al., 2002). A bone marrow transplantation (BMT) mouse model of CML is used as an assay system, in which bone marrow cells from donor mice pretreated with 5-fluorouracil (5-FU) and transduced with BCR-ABL result in development of CML in recipient mice (Li et al., 1999). Bone marrow cells from C57BL/6 (B6) mice are transduced with retrovirus containing BCR-ABL/GFP or GFP alone under conditions for induction of CML, followed by transplantation of the transduced cells into B6 recipient mice.
Fourteen days after BMT, bone marrow cells are isolated and subsequently sorted by FACS for LSCs (GFP^+Lin^−c-Kit^+Sca-1^+) (Hu et al., 2006). Total RNA is isolated from these BCR-ABL-expressing LSCs or from the GFP^+Lin^−c-Kit^+Sca-1^+ cells that only express GFP, and DNA microarray analysis is carried out to compare gene expression between BCR-ABL-expressing and non-BCR-ABL expressing Lin^−c-Kit^+Sca-1^+ cells.

[3] = tested on: GFP+Gr-1+ myeloid leukemia cells; test: FACS of GFP+Gr-1+ myeloid leukemia cells in peripheral blood and bone marrow of treated CML mice; format: in vivo
Source text: as §1
(§2) Water is used as placebo.

[4] = tested on: mice with CML induced by BCR-ABL-T315I; test: Survival of mice with CML induced by BCR-ABL-T315I; format: in vivo; conditions: zileuton n=11 vs placebo n=6
LSCs = test: FACS of LT-LSCs and ST-LSCs/MPP cells in bone marrow of zileuton-treated CML mice; format: in vivo; conditions: 300 mg/kg twice a day from day 8; days 20 and 90 post BMT
Description: Cell populations affected by Alox5 deficiency are determined using FACS analysis. BCR-ABL-transduced Alox5^−/− bone marrow cells are transplanted into recipient mice (n=4) to induce CML, and bone marrow cells from these mice are analyzed by FACS for percentages of total HSCs (Lin^−c-Kit^+Sca-1^+), LT-HSCs (Lin^−c-Kit^+Sca-1^+CD34^−), and ST-HSCs/MPP cells (Lin^−c-Kit^+Sca-1^+CD34^+).
(§3) Recipients of BCR-ABL-transduced wild type bone marrow cells are treated with zileuton (300 mg/kg of body weight, twice a day) beginning at 8 days after BMT. […] At days 20 and 90 post BMT (induction of CML), FACS analysis is performed.

normal HSCs = test: FACS of normal HSCs in zileuton-treated mice; format: in vivo
Description: as §3, with “performed. […] No suppression of normal HSCs is found in placebo- or zileuton-treated mice receiving wild type donor bone marrow cells transduced with MSCV-IRES-GFP retrovirus.” for “performed.”

white blood cells = test: Peripheral white blood cell counts of CML mice; format: in vivo; conditions: 14 days after bone marrow transplantation
Source text: as §2
The white blood cells are collected from the CML induced mice 14 days after bone marrow transplantation.

[5] = tested on: mice with BCR-ABL-induced CML; test: Leukemia cell infiltration to lungs and spleens of CML mice; format: in vivo; conditions: zileuton-treated CML mice
[6] = tested on: leukemia stem cells (CD34+CD38-); test: Human CML CD34+CD38- cells in patient bone marrow culture, FACS; format: cell-based; conditions: 48 h, untreated 1.4%
Description: Bone marrow was isolated from a CML patient. The cells were cultured in serum-free media (SFM: Iscove modified Dulbecco medium (Sigma-Aldrich) supplemented with a serum substitute bovine serum albumin[…][…], BIT9500 from […] Technologies), five growth factors (5GF: cocktail of 20 ng/mL recombinant human IL-3 (rhIL-3), 20 ng/mL rhIL-6, 100 ng/mL rhFlt3-ligand, 100 ng/mL rh stem cell factor, available from […] Technologies)) and zileuton at two doses, 300 μM or 600 μM, for 48 hours. The cells were analyzed by FACS and the percentages of leukemia stem cells (CD34+CD38-) were determined using anti CD34 and anti CD38 antibodies.

Alox5 = target: T1, Alox5 (Mus musculus, UniProt P48999); test: Plasma level of LTB4 in CML mice; conditions: compared to placebo-treated CML mice
T1 sequence (P48999 1-674): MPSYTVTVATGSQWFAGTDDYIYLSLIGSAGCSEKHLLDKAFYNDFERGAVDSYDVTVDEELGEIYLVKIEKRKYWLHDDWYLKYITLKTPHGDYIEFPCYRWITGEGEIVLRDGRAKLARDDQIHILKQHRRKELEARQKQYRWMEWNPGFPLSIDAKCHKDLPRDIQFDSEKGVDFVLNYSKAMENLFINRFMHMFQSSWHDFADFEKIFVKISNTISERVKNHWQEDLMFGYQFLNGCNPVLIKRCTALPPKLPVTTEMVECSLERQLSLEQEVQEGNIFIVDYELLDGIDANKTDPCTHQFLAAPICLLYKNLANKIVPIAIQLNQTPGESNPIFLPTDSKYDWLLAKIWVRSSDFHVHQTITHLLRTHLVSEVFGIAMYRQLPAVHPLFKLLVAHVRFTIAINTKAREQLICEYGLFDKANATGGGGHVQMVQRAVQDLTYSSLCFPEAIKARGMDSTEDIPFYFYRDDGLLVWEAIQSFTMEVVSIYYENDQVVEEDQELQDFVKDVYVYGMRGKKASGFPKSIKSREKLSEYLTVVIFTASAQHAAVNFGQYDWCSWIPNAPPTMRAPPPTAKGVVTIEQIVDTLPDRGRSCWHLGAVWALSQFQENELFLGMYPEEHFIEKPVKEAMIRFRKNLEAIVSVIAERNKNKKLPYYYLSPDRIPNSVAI

## COc1cc(C=CC(=O)CC(=O)C=Cc2ccc(O)c(OC)c2)ccc1O [Curcumin, 1,7-Bis(4-hydroxy-3-methoxyphenyl)-1,6-heptadiene-3,5-dione]
[1]
  Total live cell number of leukemia cells, LSCs, LT-LSC and ST-LSC+MPP: reduced
[2]; 20-100 μM, 72 or 96 hours
  Number of live K562 cells: reduces the number of live cells in all groups
[2]; 48 hours
  Concentration at which an effect on live K562 cell number is shown: ≥ 40 µM

## Cc1ccc(NC(=O)c2ccc(CN3CCN(C)CC3)cc2)cc1Nc1nccc(-c2cccnc2)n1 [Imatinib, 4-[(4-methylpiperazin-1-yl)methyl]-N-[4-methyl-3-[(4-pyridin-3-ylpyrimidin-2-yl)amino]-phenyl]-benzamide]
Alox5 gene
  Up-regulation of the Alox5 gene by BCR-ABL in LSCs: not abolished; also recorded: not prevented

## CC(c1cc2ccccc2s1)N(O)C(N)=O (stereo not shown) [Zileuton, N-[1-(1-benzothien-2-yl)ethyl]-N-hydroxyurea]
[3]; Day 11
  Percentage of GFP+Gr-1+ myeloid leukemia cells in the peripheral blood of CML mice: 48.3%
[3]; Day 14
  Percentage of GFP+Gr-1+ myeloid leukemia cells in the peripheral blood of CML mice: 49.9%
[3]; Day 21
  Percentage of GFP+Gr-1+ myeloid leukemia cells in the peripheral blood of CML mice: 62.9%
[3]; Day 28
  Percentage of GFP+Gr-1+ myeloid leukemia cells in the peripheral blood of CML mice: 61.4%
[3]; Day 35
  Percentage of GFP+Gr-1+ myeloid leukemia cells in the peripheral blood of CML mice: 39.7%
[3]; Day 42
  Percentage of GFP+Gr-1+ myeloid leukemia cells in the peripheral blood of CML mice: 29.4%
[3]; Day 60
  Percentage of GFP+Gr-1+ myeloid leukemia cells in the peripheral blood of CML mice: 5.1%
[3]; bone marrow, during the treatment
  GFP+Gr-1+ myeloid leukemia cells in bone marrow: drop to low levels
[3]; from 11 days to 8 weeks
  GFP+Gr-1+ cells in peripheral blood over time: gradually decrease with time
[4]
  Survival of mice with CML induced by BCR-ABL-T315I: prolongs survival
LSCs
  Ratio of percentage of LT-LSCs to percentage of ST-LSCs/MPP cells: increased with treatment
Normal HSCs; CML mice, 300 mg/kg twice a day
  Differentiation of GFP- LT-HSCs in the same animals: did not lead to blocked differentiation
Normal HSCs; mice receiving MSCV-IRES-GFP-transduced wild type bone marrow, day 14 after BMT
  Numbers of GFP+Lin-c-Kit+Sca-1+ cells in bone marrow or spleens: does not result in a reduction
White blood cells
  White blood cell counts: reduction of white blood cell counts less dramatically than does imatinib treatment
[5]
  Leukemia cell infiltration to the lungs and the spleens: less severe leukemia cell infiltration
[2]; 10-400 μM, 48 hours
  Number of live K562 cells: reduces the number of live cells in the 200 μM and 400 μM groups
[2]; 10-400 μM, 72 hours
  Number of live K562 cells: shows an effect at all concentrations
[6]; 300 μM
  Percentage of leukemia stem cells (CD34+CD38-): 1.1%
[6]; 600 μM
  Percentage of leukemia stem cells (CD34+CD38-): 0.9%
Alox5
  Plasma level of LTB4: decreased
Alox5; listed as zileuton
  Plasma level of LTB4: reduction
